In patent US20250387356A1 (SpringWorks Therapeutics, Inc., priority 2024, published 2025):

How the values were obtained:
[1] = system: NF1-associated plexiform neurofibromas (PNs); test: Phase 2b trial of mirdametinib in adult and pediatric patients: confirmed objective response by BICR volumetric MRI per REiNS criteria; format: in vivo, human
Method: Study treatment was administered orally at a twice daily (BID) dose specified in the table below. Dosing was on a 28-day Cycle (4-week course) with a 3 week on/1 week off schedule. The treatment period will last for up to 24 Cycles followed by a 30-day Safety Follow-Up period.
A partial response was defined as PN decrease ≥20% compared to baseline using centrally read MRI volumetric analysis.
The major efficacy outcome measure was confirmed objective response rate (ORR), defined as the percentage of patients with complete response (disappearance of the target PN) or confirmed partial response ([…]). Responses were assessed by blinded independent central review (BICR) using volumetric magnetic resonance imaging (MRI) analysis per Response Evaluation in Neurofibromatosis and Schwannomatosis (REiNS) criteria. A secondary efficacy objective was to determine the duration of response for patients who achieved a confirmed objective response.

[2] = Mirdametinib pharmacokinetic parameters (Table A): exposure, absorption, food effect, distribution, elimination; format: in vivo; conditions: human, plasma, oral

## O=C(NOC[C@H](O)CO)c1ccc(F)c(F)c1Nc1ccc(I)cc1F (single isomer, unassigned) [mirdametinib]
[1]; adults
  ORR, also considering patients who achieved a confirmed objective response after cycle 24: 45%
[1]; pediatric patients
  ORR, also considering patients who achieved a confirmed objective response after cycle 24: 54%
[2]; read-out: Apparent systemic clearance [Mean (% CV)] (converted)
  clearance: 106 mL/min
[2]; read-out: Apparent volume of distribution [Mean (% CV)]
  Vd: 255 L
[2]; read-out: Terminal elimination half-life [Mean (% CV)] (converted)
  half-life: 28 h
